In patent US12153287B2, “Sustained fatty acid release from contact lens” (CooperVision International Limited, priority 2022, dated 2024):

Target: T1, recombinant human PLA2G2A (sPLA2-IIA) (Homo sapiens, UniProt P14555)
T1 sequence (P14555 21-144): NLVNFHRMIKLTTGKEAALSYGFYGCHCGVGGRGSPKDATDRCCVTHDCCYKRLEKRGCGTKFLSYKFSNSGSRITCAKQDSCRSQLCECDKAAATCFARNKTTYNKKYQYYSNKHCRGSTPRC
Experiment: Susceptibility of phospholipid digestion by sPLA2-IIA (lens pieces in ATF with and without sPLA2, LCMS of released fatty acid)
Conditions: phospholipid present in a silicone hydrogel contact lens body

| Susceptibility to digestion by sPLA2 enzymes found in human tears | SMILES |
| --- | --- |
| not susceptible to digestion | CCCCCCCC/C=C\CCCCCCCC(=O)OC[C@H](COP(=O)([O-])OCC[N+](C)(C)C)OC(=O)CCCCCCC/C=C\CCCCCCCC [DOPC, 1,2-dioleoyl-sn-glycero-3-phosphocholine] |
| not susceptible to digestion | CCCCCCCCCCCCCC(=O)OC[C@H](COP(=O)([O-])OCC[N+](C)(C)C)OC(=O)CCCCCCCCCCCCC [DMPC, 1,2-dimyristoyl-sn-glycero-3-phosphocholine] |
